Laboratory results taken from PubChem BioAssay (NCI).
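Where inhibition never reached the appropriate level, the endpoint shown equals the highest concentration tested. Otherwise, values were interpolated linearly from a five-concentration, 48-hour dose response in 96-well plates. At the GI50, growth is halved. TGI denotes the concentration required for complete inhibition of growth.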

Assays:
Assay in all cases: NCI-60 cell line screen, 48 h
[1] = tested on: ACHN renal
[2] = tested on: BT-549 breast
[3] = tested on: MALME-3M melanoma
[4] = tested on: HCC-2998 colon
[5] = tested on: CCRF-CEM leukemia
[6] = tested on: KM12 colon
[7] = tested on: NCI/ADR-RES ovarian
[8] = tested on: TK-10 renal
[9] = tested on: RXF 393 renal
[10] = tested on: SF-295 CNS

`Cc1cc(Cl)ccc1Nc1nc(C(F)(F)F)ccc1C(=O)N/N=C/c1ccc(Cl)cc1` showed a GI50 [1] of 2.48 µM, a TGI [1] of 8.71 µM and a GI50 [2] of 1.34 µM. For the same molecule, the TGI [2] was 4.71 µM, the GI50 [3] was 2.02 µM and the TGI [3] was 5.51 µM. It also gave a GI50 [4] of 1.45 µM, a TGI [4] of 4.7 µM and a GI50 [5] of 0.384 µM. For the same molecule, the TGI [5] was 3.39 µM, the GI50 [6] was 2.08 µM and the TGI [6] was 7.24 µM. It also gave a GI50 [7] of 2.16 µM, a TGI [7] of 6.38 µM and a GI50 [8] of 1.66 µM. It also gave a TGI [8] of 7.01 µM, a GI50 [9] of 3.08 µM and a TGI [9] of 22.2 µM.
`CCn1cc(C(=O)N/N=C/c2ccccc2)c(=O)c2cc(F)c(N3CCNC(C)C3)c(F)c21` (centres undefined) was tested, and the GI50 [1] was 1.73 µM, the TGI [1] was 3.12 µM and the GI50 [2] was 1.6 µM. The TGI [2] was 3 µM, the GI50 [4] was 1.8 µM and the TGI [4] was 3.32 µM. For the same molecule, the GI50 [7] was 1.76 µM, the TGI [7] was 3.46 µM and the GI50 [10] was 1.83 µM. The TGI [10] was 3.35 µM, the GI50 [8] was 1.71 µM and the TGI [8] was 3.24 µM.
Molecule `COc1ccc(-c2nc(/C=N/Nc3cc(C)nc4ccc(Cl)cc34)c(C)o2)cc1` has a GI50 [1] of 1.81 µM, a TGI [1] of 3.2 µM and a GI50 [2] of 1.95 µM. The TGI [2] was 4.28 µM, the GI50 [3] was 1.84 µM and the TGI [3] was 3.43 µM. The GI50 [4] was 1.85 µM, the TGI [4] was 3.39 µM and the GI50 [6] was 1.79 µM. For the same molecule, the TGI [6] was 3.49 µM, the GI50 [7] was 1.97 µM and the TGI [7] was 3.95 µM. For the same molecule, the GI50 [10] was 1.82 µM, the TGI [10] was 3.31 µM and the GI50 [8] was 1.83 µM. It also gave a TGI [8] of 3.3 µM, a GI50 [9] of 1.64 µM and a TGI [9] of 3.14 µM.
With `C1=CC=C2NCCCCCCCNC3=CC=CC=CC3=NCCCCCCCN=C2C=C1` the TGI [1] was greater than 100 µM, the TGI [3] was greater than 100 µM and the TGI [4] was greater than 100 µM. It also gave a TGI [5] greater than 100 µM, a TGI [6] greater than 100 µM and a TGI [10] greater than 100 µM. For the same molecule, the TGI [9] was 39.5 µM.
In the case of `O=C(O/C(=C(/N=Nc1ccccc1)c1ccccc1)c1ccccc1)c1ccccc1`, the TGI [1] is reported as greater than 100 µM, the TGI [3] is reported as greater than 100 µM and the TGI [4] is reported as greater than 100 µM. It also gave a TGI [6] greater than 100 µM, a TGI [10] greater than 100 µM and a TGI [8] greater than 100 µM. For the same molecule, the TGI [9] was greater than 100 µM.
In the case of `O=c1[nH]nc2ccccc2c1Cc1ccccc1`, the TGI [1] is reported as greater than 100 µM, the TGI [3] is reported as greater than 100 µM and the TGI [4] is reported as greater than 100 µM. For the same molecule, the TGI [5] was greater than 100 µM, the TGI [6] was greater than 100 µM and the TGI [10] was greater than 100 µM. For the same molecule, the TGI [8] was greater than 100 µM.
In the case of `CC(C)CCCC(C)[C@H]1CCC2[C@@H]3CCC4Nc5nocc5C[C@]4(C)C3CC[C@@]21C` (some centres undefined), the TGI [1] is reported as 28.6 µM, the TGI [3] is reported as 40.2 µM and the TGI [4] is reported as 29.5 µM. It also gave a TGI [5] of 36.9 µM, a TGI [6] of 38.4 µM and a TGI [10] of 34 µM. For the same molecule, the TGI [8] was 21.1 µM and the TGI [9] was 28.5 µM.
`CCC(C)[C@H]1O[C@]2(C=C[C@@H]1C)C[C@@H]1C[C@@H](C/C=C(\C)[C@@H](OC3C[C@H](OC)C(O[C@H]4C[C@H](OC)[C@@H](O)[C@H](C)O4)[C@H](C)O3)[C@@H](C)/C=C/C=C3\CO[C@@H]4[C@H](O)C(C)=C[C@@H](C(=O)O1)[C@]34O)O2` (some centres undefined) was tested, and the GI50 [1] was 1.72 µM, the TGI [1] was 5.63 µM and the GI50 [2] was 0.864 µM. The TGI [2] was 1.66 µM, the GI50 [4] was 0.843 µM and the TGI [4] was 1.67 µM. It also gave a GI50 [6] of 1.67 µM, a TGI [6] of 5.96 µM and a GI50 [7] of 1.41 µM. It also gave a TGI [7] of 4.77 µM, a GI50 [8] of 1.07 µM and a TGI [8] of 2.74 µM. It also gave a GI50 [9] of 0.939 µM and a TGI [9] of 3.5 µM.
`O=C(N/C(=C/c1ccc(Cl)cc1Cl)c1nc2ccccc2s1)c1ccccc1` was tested, and the TGI [1] was 19.5 µM, the TGI [2] was 64.8 µM and the TGI [3] was 31.1 µM. The TGI [5] was greater than 100 µM, the TGI [6] was 26.5 µM and the TGI [7] was 39.5 µM. The TGI [10] was 26.5 µM, the TGI [8] was 42.8 µM and the TGI [9] was 54.9 µM.
Work on `COCC(O)Cn1ccnc1[N+](=O)[O-]` (centres undefined) yielded a TGI [1] greater than 100 µM, a TGI [3] greater than 100 µM and a TGI [4] greater than 100 µM. It also gave a TGI [5] greater than 100 µM, a TGI [6] greater than 100 µM and a TGI [10] greater than 100 µM. The TGI [8] was greater than 100 µM.
With `OCC1C(/C=C/c2ccoc2)ON2CCCC12` (centres undefined) the TGI [1] was greater than 100 µM, the TGI [3] was greater than 100 µM and the TGI [4] was greater than 100 µM. For the same molecule, the TGI [6] was greater than 100 µM, the TGI [10] was greater than 100 µM and the TGI [8] was greater than 100 µM. It also gave a TGI [9] greater than 100 µM.
`COC(=O)c1ccccc1OCc1cc(=O)oc2ccc(C)cc12` gave a TGI [1] greater than 100 µM, a TGI [2] greater than 100 µM and a TGI [3] greater than 100 µM. The TGI [4] was greater than 100 µM, the TGI [5] was greater than 100 µM and the TGI [6] was greater than 100 µM. For the same molecule, the TGI [7] was greater than 100 µM, the TGI [10] was greater than 81.2 µM and the TGI [8] was greater than 100 µM.
For `C[C@]12CCC(=O)C=C1CC[C@@H]1C2CC[C@]2(C)Nc3c(cnn3-c3ccccc3)CC12` (some centres undefined), the TGI [1] was greater than 100 µM, the TGI [3] was greater than 100 µM and the TGI [4] was greater than 100 µM. For the same molecule, the TGI [5] was greater than 100 µM, the TGI [6] was greater than 10 µM and the TGI [10] was greater than 10 µM. The TGI [8] was greater than 100 µM and the TGI [9] was greater than 100 µM.
Molecule `C=CCNC(=O)N(CCCC(NC(C)=O)C(=O)NCc1ccccc1)Cc1ccccc1` (centres undefined) has a TGI [1] greater than 100 µM, a TGI [3] greater than 100 µM and a TGI [5] greater than 100 µM. The TGI [6] was greater than 100 µM, the TGI [10] was greater than 100 µM and the TGI [8] was greater than 100 µM. It also gave a TGI [9] greater than 100 µM.
`CC(=O)NNc1nc(C)c(C(=O)/C=C/c2ccccc2Cl)s1` gave a TGI [1] greater than 100 µM, a TGI [3] greater than 100 µM and a TGI [4] greater than 100 µM. It also gave a TGI [5] greater than 100 µM, a TGI [6] greater than 100 µM and a TGI [10] greater than 100 µM. It also gave a TGI [8] greater than 100 µM and a TGI [9] greater than 100 µM.
In the case of `O=C1NC2(CCCCCC2)C2CCCCCCC12O` (centres undefined), the TGI [1] is reported as greater than 100 µM, the TGI [3] is reported as greater than 100 µM and the TGI [5] is reported as greater than 100 µM. The TGI [6] was greater than 100 µM, the TGI [10] was greater than 100 µM and the TGI [8] was greater than 100 µM. It also gave a TGI [9] greater than 100 µM.
`Cc1cc2c(C)nn(Cc3ccccc3)c2c(C(N)=O)c1C` was tested, and the TGI [1] was greater than 100 µM, the TGI [3] was greater than 100 µM and the TGI [4] was greater than 100 µM. For the same molecule, the TGI [5] was greater than 100 µM, the TGI [6] was greater than 100 µM and the TGI [10] was greater than 100 µM. The TGI [8] was greater than 100 µM.
For `Cc1cc(NCCCCCCNc2cc(C)nc3cc(N(C)C)ccc23)c2ccc(N(C)C)cc2n1`, the TGI [1] was greater than 100 µM, the TGI [3] was 62.6 µM and the TGI [4] was greater than 100 µM. For the same molecule, the TGI [5] was greater than 100 µM, the TGI [6] was greater than 100 µM and the TGI [10] was greater than 100 µM. For the same molecule, the TGI [8] was greater than 100 µM and the TGI [9] was greater than 100 µM.
`O=C(CC(=O)C1=CNc2ccccc2S1)C(=O)Nc1ccc(Cl)cc1` showed a TGI [1] greater than 50 µM, a TGI [3] greater than 50 µM and a TGI [4] greater than 50 µM. It also gave a TGI [5] greater than 50 µM, a TGI [6] greater than 50 µM and a TGI [10] greater than 50 µM. For the same molecule, the TGI [8] was greater than 50 µM and the TGI [9] was greater than 50 µM.
`CCCc1cc(=O)[nH]c(-n2nc(C)cc2C)n1` showed a GI50 [1] of 3.97 µM, a TGI [1] greater than 100 µM and a GI50 [2] of 6.86 µM. For the same molecule, the TGI [2] was greater than 100 µM, the GI50 [4] was 14.3 µM and the TGI [4] was greater than 100 µM. The GI50 [5] was 1.59 µM, the TGI [5] was 26.5 µM and the GI50 [6] was 5.25 µM. For the same molecule, the TGI [6] was greater than 100 µM, the GI50 [7] was 2.73 µM and the TGI [7] was greater than 100 µM. The GI50 [10] was 1.07 µM, the TGI [10] was 8.81 µM and the GI50 [9] was 18.6 µM. For the same molecule, the TGI [9] was greater than 100 µM.
Work on `COc1ccc2c(c1)[n+]([O-])c(-c1ccc(OC)c(OC)c1)c(N)[n+]2[O-]` yielded a TGI [1] greater than 100 µM, a TGI [3] greater than 100 µM and a TGI [4] greater than 100 µM. It also gave a TGI [5] greater than 100 µM, a TGI [6] greater than 100 µM and a TGI [10] greater than 100 µM. For the same molecule, the TGI [8] was greater than 100 µM.
